Results reported in ChEMBL document CHEMBL4043269, “Synthesis and structure activity relationships of carbamimidoylcarbamate derivatives as novel vascular adhesion protein-1 inhibitors” (Bioorg Med Chem, 2017).

Columns and labels:
[1] = Aqueous solubility of compound in Japanese pharmacopoeia second fluid at pH 6.8 at 130 uM after 20 hrs by HPLC analysis; type: physicochemical
[2] = biological target: T1, Amine oxidase [copper-containing] 3 (Homo sapiens, UniProt Q16853); experiment: Inhibition of human VAP-1 expressed in CHO cells preincubated for 20 mins followed by [14C]-benzylamine addition measured after 1 hr by scintillation spectrometric analysis; type: cell-based
T1 sequence (Q16853 whole entry): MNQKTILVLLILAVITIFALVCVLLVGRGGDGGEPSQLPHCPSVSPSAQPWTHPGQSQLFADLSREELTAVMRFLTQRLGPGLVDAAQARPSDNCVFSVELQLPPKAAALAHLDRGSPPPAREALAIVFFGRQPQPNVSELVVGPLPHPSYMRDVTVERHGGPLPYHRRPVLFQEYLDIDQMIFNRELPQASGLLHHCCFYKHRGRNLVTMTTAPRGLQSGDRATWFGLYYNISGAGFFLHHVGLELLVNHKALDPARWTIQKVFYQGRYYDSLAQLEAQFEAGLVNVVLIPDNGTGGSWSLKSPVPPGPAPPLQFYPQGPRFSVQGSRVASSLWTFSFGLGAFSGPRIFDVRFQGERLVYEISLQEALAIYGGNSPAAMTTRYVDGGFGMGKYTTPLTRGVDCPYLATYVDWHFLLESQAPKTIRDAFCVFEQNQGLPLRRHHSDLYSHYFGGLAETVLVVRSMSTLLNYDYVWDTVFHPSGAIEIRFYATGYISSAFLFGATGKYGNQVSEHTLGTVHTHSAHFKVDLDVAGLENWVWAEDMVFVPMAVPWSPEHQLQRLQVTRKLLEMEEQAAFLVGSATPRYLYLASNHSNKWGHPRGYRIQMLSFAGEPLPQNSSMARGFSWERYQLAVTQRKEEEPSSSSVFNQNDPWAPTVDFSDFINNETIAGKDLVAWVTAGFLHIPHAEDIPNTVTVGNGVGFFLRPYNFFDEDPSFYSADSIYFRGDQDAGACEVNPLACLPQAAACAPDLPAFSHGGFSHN

[3] = Stability in cynomolgus monkey plasma assessed as parent compound remaining at 2 uM after 6 hrs by LC-MS/MS analysis relative to initial concentration; type: ADME, cell-free, Macaca fascicularis; details: read-out: Stability
[4] = Stability in Wistar rat plasma assessed as parent compound remaining at 2 uM after 6 hrs by LC-MS/MS analysis relative to initial concentration; type: ADME, cell-free; details: read-out: Stability
[5] = biological target: CYP3A4 (Homo sapiens, UniProt P08684); experiment: Inhibition of CYP3A4 in human liver microsomes using midazolam as substrate assessed as residual activity at 5 uM after 20 mins by HPLC analysis; type: ADME; details: probe midazolam, read-out: Activity
Sequence of CYP3A4 (P08684 whole entry): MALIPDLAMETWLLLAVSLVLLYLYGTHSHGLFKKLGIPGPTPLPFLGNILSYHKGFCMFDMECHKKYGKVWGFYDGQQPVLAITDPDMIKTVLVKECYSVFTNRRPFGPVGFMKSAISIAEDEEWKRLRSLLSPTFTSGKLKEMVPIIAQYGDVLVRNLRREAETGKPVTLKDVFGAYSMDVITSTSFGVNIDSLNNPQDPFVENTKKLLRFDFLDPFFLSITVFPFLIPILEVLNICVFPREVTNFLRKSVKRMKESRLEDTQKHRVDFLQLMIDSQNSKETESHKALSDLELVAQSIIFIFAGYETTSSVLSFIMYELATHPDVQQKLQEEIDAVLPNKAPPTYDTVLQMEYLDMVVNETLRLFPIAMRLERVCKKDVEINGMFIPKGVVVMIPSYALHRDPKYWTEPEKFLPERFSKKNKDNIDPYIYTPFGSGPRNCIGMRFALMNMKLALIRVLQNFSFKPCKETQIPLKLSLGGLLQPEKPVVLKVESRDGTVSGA

[6] = biological target: T2, CYP1A2 (Homo sapiens, UniProt P05177); experiment: Inhibition of CYP1A2 in human liver microsomes using phenacetin as substrate assessed as residual activity at 5 uM after 20 mins by HPLC analysis; type: ADME; details: probe phenacetin, read-out: Activity
T2 sequence (P05177 whole entry): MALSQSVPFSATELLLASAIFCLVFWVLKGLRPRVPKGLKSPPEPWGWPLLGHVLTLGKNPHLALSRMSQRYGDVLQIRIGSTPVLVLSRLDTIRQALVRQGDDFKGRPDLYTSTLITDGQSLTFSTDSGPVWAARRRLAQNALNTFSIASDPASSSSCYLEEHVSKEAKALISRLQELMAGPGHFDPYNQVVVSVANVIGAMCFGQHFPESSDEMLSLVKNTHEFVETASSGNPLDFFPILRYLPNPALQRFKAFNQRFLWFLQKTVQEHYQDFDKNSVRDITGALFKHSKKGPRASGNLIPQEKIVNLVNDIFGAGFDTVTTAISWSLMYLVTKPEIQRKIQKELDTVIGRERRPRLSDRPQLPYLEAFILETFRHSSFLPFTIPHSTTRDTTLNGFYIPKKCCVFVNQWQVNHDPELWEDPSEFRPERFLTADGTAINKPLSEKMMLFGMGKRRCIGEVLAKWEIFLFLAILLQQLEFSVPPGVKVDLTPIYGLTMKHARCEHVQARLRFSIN

[7] = Stability in human plasma assessed as parent compound remaining at 2 uM after 6 hrs by LC-MS/MS analysis relative to initial concentration; type: ADME, cell-free; details: read-out: Stability
[8] = biological target: CYP2D6 (Homo sapiens, UniProt P10635); experiment: Inhibition of CYP2D6 in human liver microsomes using dextromethorphan as substrate assessed as residual activity at 5 uM after 20 mins by HPLC analysis; type: ADME; details: probe dextromethorphan, read-out: Activity
Sequence of CYP2D6 (P10635 whole entry): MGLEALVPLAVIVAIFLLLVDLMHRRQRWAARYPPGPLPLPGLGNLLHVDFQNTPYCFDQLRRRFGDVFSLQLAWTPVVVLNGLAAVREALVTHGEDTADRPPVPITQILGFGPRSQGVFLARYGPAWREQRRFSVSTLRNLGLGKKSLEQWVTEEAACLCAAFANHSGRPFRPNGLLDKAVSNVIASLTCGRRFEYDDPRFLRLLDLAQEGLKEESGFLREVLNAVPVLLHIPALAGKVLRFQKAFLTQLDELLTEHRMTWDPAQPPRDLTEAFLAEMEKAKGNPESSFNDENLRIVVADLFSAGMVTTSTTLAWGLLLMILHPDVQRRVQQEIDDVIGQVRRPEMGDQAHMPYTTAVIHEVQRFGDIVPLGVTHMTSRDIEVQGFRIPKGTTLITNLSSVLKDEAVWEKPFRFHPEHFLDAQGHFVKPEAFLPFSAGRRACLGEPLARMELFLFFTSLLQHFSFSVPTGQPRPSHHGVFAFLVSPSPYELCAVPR

[9] = biological target: T3, CYP2C8 (Homo sapiens, UniProt P10632); experiment: Inhibition of CYP2C8 in human liver microsomes using amodiaquine as substrate assessed as residual activity at 5 uM after 20 mins by HPLC analysis; type: ADME; details: probe amodiaquine, read-out: Activity
T3 sequence (P10632 whole entry): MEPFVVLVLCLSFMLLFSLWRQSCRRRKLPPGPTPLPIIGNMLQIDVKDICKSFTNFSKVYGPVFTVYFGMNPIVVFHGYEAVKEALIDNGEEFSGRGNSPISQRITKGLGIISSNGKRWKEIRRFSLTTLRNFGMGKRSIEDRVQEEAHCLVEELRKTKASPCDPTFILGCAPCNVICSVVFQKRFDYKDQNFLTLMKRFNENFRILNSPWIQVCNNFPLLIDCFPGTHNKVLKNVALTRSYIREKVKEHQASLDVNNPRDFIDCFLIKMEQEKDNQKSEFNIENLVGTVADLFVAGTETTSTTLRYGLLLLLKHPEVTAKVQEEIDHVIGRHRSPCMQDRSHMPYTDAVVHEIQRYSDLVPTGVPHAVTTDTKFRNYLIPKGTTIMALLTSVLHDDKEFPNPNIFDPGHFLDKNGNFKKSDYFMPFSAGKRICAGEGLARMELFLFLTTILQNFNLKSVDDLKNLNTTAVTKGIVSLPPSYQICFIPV

[10] = biological target: CYP2C19 (Homo sapiens, UniProt P33261); experiment: Inhibition of CYP2C19 in human liver microsomes using S-mephenytoin as substrate assessed as residual activity at 5 uM after 20 mins by HPLC analysis; type: ADME; details: probe S-mephenytoin, read-out: Activity
Sequence of CYP2C19 (P33261 whole entry): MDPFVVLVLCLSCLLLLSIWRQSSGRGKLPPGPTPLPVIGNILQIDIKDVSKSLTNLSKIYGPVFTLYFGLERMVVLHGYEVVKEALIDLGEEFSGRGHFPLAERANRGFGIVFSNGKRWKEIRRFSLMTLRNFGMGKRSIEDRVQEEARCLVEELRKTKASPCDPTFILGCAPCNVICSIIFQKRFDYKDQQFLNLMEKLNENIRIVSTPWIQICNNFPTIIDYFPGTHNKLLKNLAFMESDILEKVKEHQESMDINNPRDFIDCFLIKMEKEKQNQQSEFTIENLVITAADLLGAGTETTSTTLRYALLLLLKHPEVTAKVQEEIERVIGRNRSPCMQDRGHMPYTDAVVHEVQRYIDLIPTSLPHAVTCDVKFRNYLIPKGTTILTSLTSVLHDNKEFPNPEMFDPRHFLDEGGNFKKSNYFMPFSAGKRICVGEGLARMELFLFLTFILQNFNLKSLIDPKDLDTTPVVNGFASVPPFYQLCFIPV

[11] = Stability in Beagle dog plasma assessed as parent compound remaining at 2 uM after 6 hrs by LC-MS/MS analysis relative to initial concentration; type: ADME, cell-free, Canis lupus familiaris; details: read-out: Stability
[12] = biological target: CYP2C9 (Homo sapiens, UniProt P11712); experiment: Inhibition of CYP2C9 in human liver microsomes using diclofenac as substrate assessed as residual activity at 5 uM after 20 mins by HPLC analysis; type: ADME; details: probe diclofenac, read-out: Activity
Sequence of CYP2C9 (P11712 whole entry): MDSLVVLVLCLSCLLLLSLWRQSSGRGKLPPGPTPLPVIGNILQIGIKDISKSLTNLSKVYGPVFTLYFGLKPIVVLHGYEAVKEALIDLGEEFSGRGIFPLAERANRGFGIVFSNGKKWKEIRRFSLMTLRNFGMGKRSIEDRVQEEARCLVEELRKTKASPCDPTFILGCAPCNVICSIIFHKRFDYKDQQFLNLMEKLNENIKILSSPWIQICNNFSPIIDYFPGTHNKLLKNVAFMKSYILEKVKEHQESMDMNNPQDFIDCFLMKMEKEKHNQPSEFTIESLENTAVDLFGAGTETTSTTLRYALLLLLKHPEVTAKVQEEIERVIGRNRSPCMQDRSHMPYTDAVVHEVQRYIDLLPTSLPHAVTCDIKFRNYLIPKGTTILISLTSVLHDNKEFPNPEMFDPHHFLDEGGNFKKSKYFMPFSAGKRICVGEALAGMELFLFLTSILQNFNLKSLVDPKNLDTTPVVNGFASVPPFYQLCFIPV

SMILES | solubility at 20 h, 130 µM [1] [µM] | IC50 [2] [nM] | activity at 20 min, 5 µM [5] [%] | activity at 20 min, 5 µM [6] [%] | activity at 20 min, 5 µM [8] [%] | activity at 20 min, 5 µM [9] [%] | activity at 20 min, 5 µM [10] [%] | also measured
Cc1c(COC(=O)NC(=N)N)cccc1-c1cnc(N2CCOCC2)nc1.O=C(O)C(O)C(O)C(=O)O | 34 | 410 |  |  |  |  |  | 
N=C(N)Nc1cccc(CCc2cnc(N3CCOCC3)nc2)c1 |  | > 10000 |  |  |  |  |  | 
N=C(N)NC(=O)Cc1cccc(CCc2cnc(N3CCOCC3)nc2)c1 |  | 54 |  |  |  |  |  | 
N=C(N)NC(=O)OCc1ccc(F)c(-c2cnc(N3CCOCC3)nc2)c1F.N=C(N)NC(=O)OCc1ccc(F)c(-c2cnc(N3CCOCC3)nc2)c1F.O=C(O)C(O)C(O)C(=O)O | 17 | 77 |  |  |  |  |  | 
Cl.N=C(N)NC(=O)OCc1cccc(-c2cnc(N3CCOCC3)nc2)c1F | 7.5 | 9.2 |  |  |  |  |  | 
Cc1nc(N2CCOCC2)ncc1-c1cccc(COC(=O)NC(=N)N)c1F.O=C(O)C(O)C(O)C(=O)O | 90 | 400 |  |  |  |  |  | 
N=C(N)NCCc1cccc(CCc2cnc(N3CCOCC3)nc2)c1 |  | > 10000 |  |  |  |  |  | 
Cl.Cl.Cl.N=C(N)NC(=O)OCc1cccc(N2CCN(c3ccncc3)CC2)c1 | ≥ 100 | 13 | 80 | 86 | 13 | 25 | 91 | activity at 20 min, 5 µM [12]: 80%
CN(Cc1cccc(-c2cnc(N3CCOCC3)nc2)c1)C(=O)NC(=N)N |  | 530 |  |  |  |  |  | 
Cl.Cl.N=C(N)NC(=O)OCc1ccc(F)c(-c2cnc(N3CCOCC3)nc2)c1 | 68 | 99 |  |  |  |  |  | 
Cl.Cl.N=C(N)NC(=O)OCc1cccc(-c2cnc(N3CCOCC3)nc2)c1Cl | 8.2 | 600 |  |  |  |  |  | 
N=C(N)NC(=O)Cc1cccc(-c2cnc(N3CCOCC3)nc2)c1 |  | 56 |  |  |  |  |  | 

Continued, in another order:

solubility at 20 h, 130 µM [1] [µM] | IC50 [2] [nM] | activity at 20 min, 5 µM [5] [%] | activity at 20 min, 5 µM [6] [%] | activity at 20 min, 5 µM [8] [%] | activity at 20 min, 5 µM [9] [%] | activity at 20 min, 5 µM [10] [%] | SMILES | also measured
≥ 100 | 110 |  |  |  |  |  | N=C(N)NC(=O)OCc1cccc(N2CCN(C3CCOCC3)CC2)c1.O=C(O)C(O)C(O)C(=O)O | 
≥ 100 | 160 |  |  |  |  |  | Cl.Cl.Cl.N=C(N)NC(=O)OCc1cccc(N2CCC(N3CCOCC3)CC2)c1 | 
8.3 | 47 | 109 | 96 | 93 | 83 | 102 | N=C(N)NC(=O)OCc1cccc(-c2cnc(N3CCOCC3)nc2)c1.O=C(O)C(O)C(O)C(=O)O | remaining at 6 h, 2 µM [3]: 103%; remaining at 6 h, 2 µM [4]: 105%; remaining at 6 h, 2 µM [7]: 101%; remaining at 6 h, 2 µM [11]: 98.3%
31 |  | 61 | 94 | 96 | 99 | 96 | N=C(N)NC(=O)OCc1cccc(N2CCN(c3cccnc3)CC2)c1F.O=C(O)C(O)C(O)C(=O)O | 
≥ 100 | 40 | 96 | 89 | 77 | 46 | 91 | Cc1ncccc1OC1CN(c2cccc(COC(=O)NC(=N)N)c2F)C1.O=C(O)C(O)C(O)C(=O)O | 
≥ 100 | 31 |  |  |  |  |  | CN(Cc1cccc(-c2cnc(N3CCOCC3)nc2)c1)C(=O)CN.O=C(O)C(O)C(O)C(=O)O | 
≥ 100 | 140 |  |  |  |  |  | Cl.Cl.Cl.N=C(N)NC(=O)OCc1cccc(N2CCN(c3ccccn3)CC2)c1 | 
 | 5100 |  |  |  |  |  | N=C(N)Nc1ccc(CCc2cnc(N3CCOCC3)nc2)cc1 | 
≥ 100 | 45 | 32 | 93 | 11 | 61 | 96 | N=C(N)NC(=O)OCc1cccc(N2CCC(Oc3cccnc3)CC2)c1F.O=C(O)C(O)C(O)C(=O)O | 
≥ 100 | 31 | 64 | 55 | 68 | 92 | 99 | Cl.Cl.Cl.N=C(N)NC(=O)OCc1cccc(N2CCN(c3cccnc3)CC2)c1 | activity at 20 min, 5 µM [12]: 101%
≥ 100 | 24 | 56 | 84 | 16 | 78 | 66 | N=C(N)NC(=O)OCc1cccc(N2CC(Oc3cccnc3)C2)c1F.N=C(N)NC(=O)OCc1cccc(N2CC(Oc3cccnc3)C2)c1F.O=C(O)C(O)C(O)C(=O)O | 
